In PubChem BioAssay (NCI):
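Five concentrations, 48 hours, 96-well plates. The concentration for full growth arrest is given as TGI.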

Experiments:
Test in all cases: NCI anticancer screen, dose series, 48 h
[1] = tested on: 786-0 renal
[2] = tested on: A498 renal
[3] = tested on: A549 NSCLC
[4] = tested on: ACHN renal
[5] = tested on: BT-549 breast
[6] = tested on: CAKI-1 renal
[7] = tested on: CCRF-CEM leukemia
[8] = tested on: COLO 205 colon
[9] = tested on: DU-145 prostate
[10] = tested on: EKVX NSCLC
[11] = tested on: HCC-2998 colon
[12] = tested on: HCT-116 colon
[13] = tested on: HCT-15 colon
[14] = tested on: HL-60(TB) leukemia
[15] = tested on: HOP-62 NSCLC
[16] = tested on: HOP-92 NSCLC
[17] = tested on: HS 578T breast
[18] = tested on: HT29 colon
[19] = tested on: IGROV1 ovarian
[20] = tested on: KM12 colon
[21] = tested on: LOX IMVI melanoma
[22] = tested on: M14 melanoma
[23] = tested on: MALME-3M melanoma
[24] = tested on: MCF7 breast
[25] = tested on: MDA-MB-231 breast
[26] = tested on: MDA-MB-435
[27] = tested on: MDA-N
[28] = tested on: MOLT-4 leukemia
[29] = tested on: NCI-H226 lung
[30] = tested on: NCI-H23 lung
[31] = tested on: NCI-H460 lung
[32] = tested on: NCI-H522 lung
[33] = tested on: NCI/ADR-RES ovarian
[34] = tested on: OVCAR-3 ovarian
[35] = tested on: OVCAR-4 ovarian
[36] = tested on: OVCAR-5 ovarian
[37] = tested on: OVCAR-8 ovarian
[38] = tested on: PC-3 prostate
[39] = tested on: RPMI-8226 leukemia
[40] = tested on: RXF 393 renal
[41] = tested on: SF-268 CNS
[42] = tested on: SF-295 CNS
[43] = tested on: SF-539 CNS
[44] = tested on: SK-MEL-2 melanoma
[45] = tested on: SK-MEL-28 melanoma
[46] = tested on: SK-MEL-5 melanoma
[47] = tested on: SK-OV-3 ovarian
[48] = tested on: SN12C renal
[49] = tested on: SNB-19 CNS
[50] = tested on: SNB-75 CNS
[51] = tested on: SW-620 colon
[52] = tested on: T-47D breast
[53] = tested on: TK-10 renal
[54] = tested on: U251 CNS
[55] = tested on: UACC-257 melanoma
[56] = tested on: UACC-62 melanoma
[57] = tested on: UO-31 renal
[58] = tested on: K-562 leukemia

`O=c1oc2ccccc2c(O)c1C(c1ccc(OCc2ccccc2)cc1)c1c(O)c2ccccc2oc1=O` was tested, and the TGI [1] was > 100 µM, the TGI [2] was > 100 µM and the TGI [3] was > 100 µM. It also gave a TGI [4] of 47.9 µM, a TGI [5] of 61.8 µM and a TGI [6] of 81.2 µM. For the same compound, the TGI [7] was > 100 µM, the TGI [8] was > 100 µM and the TGI [9] was > 100 µM. The TGI [10] was > 100 µM, the TGI [11] was 96.9 µM and the TGI [12] was > 100 µM. The TGI [13] was > 100 µM, the TGI [14] was 65.9 µM and the TGI [15] was > 100 µM. For the same compound, the TGI [16] was 91.6 µM, the TGI [17] was > 100 µM and the TGI [18] was > 100 µM. For the same compound, the TGI [19] was > 100 µM, the TGI [20] was > 100 µM and the TGI [21] was > 100 µM. The TGI [22] was > 100 µM, the TGI [23] was > 100 µM and the TGI [24] was > 100 µM. For the same compound, the TGI [25] was 69.2 µM, the TGI [26] was > 100 µM and the TGI [27] was 59.4 µM. For the same compound, the TGI [28] was > 100 µM, the TGI [29] was > 100 µM and the TGI [30] was > 100 µM. For the same compound, the TGI [31] was > 100 µM, the TGI [32] was > 100 µM and the TGI [33] was > 100 µM. The TGI [34] was > 100 µM, the TGI [35] was > 100 µM and the TGI [36] was > 100 µM. For the same compound, the TGI [37] was > 100 µM, the TGI [38] was > 100 µM and the TGI [39] was > 100 µM. For the same compound, the TGI [40] was > 100 µM, the TGI [41] was > 100 µM and the TGI [42] was > 100 µM. The TGI [43] was > 100 µM, the TGI [44] was > 100 µM and the TGI [45] was > 100 µM. For the same compound, the TGI [46] was 60.1 µM, the TGI [47] was > 100 µM and the TGI [48] was > 100 µM. The TGI [49] was > 100 µM, the TGI [50] was 65.6 µM and the TGI [51] was > 100 µM. For the same compound, the TGI [52] was > 100 µM, the TGI [53] was > 100 µM and the TGI [54] was > 100 µM. The TGI [55] was > 100 µM, the TGI [56] was > 100 µM and the TGI [57] was 52.5 µM.

For `COC(=O)/C=C1\C(CO[Si](C)(C)C(C)(C)C)OC(n2cc(C)c(=O)n(C)c2=O)C1O[Si](C)(C)C(C)(C)C` (stereo not given), the TGI [1] was > 100 µM, the TGI [2] was > 100 µM and the TGI [3] was > 100 µM. The TGI [4] was > 100 µM, the TGI [7] was > 100 µM and the TGI [8] was > 100 µM. The TGI [9] was > 100 µM, the TGI [10] was > 100 µM and the TGI [12] was > 100 µM. For the same compound, the TGI [13] was > 100 µM, the TGI [15] was > 100 µM and the TGI [16] was > 100 µM. The TGI [17] was > 100 µM, the TGI [18] was > 100 µM and the TGI [19] was > 100 µM. For the same compound, the TGI [58] was > 100 µM, the TGI [20] was > 100 µM and the TGI [21] was > 100 µM. For the same compound, the TGI [22] was > 100 µM, the TGI [23] was > 100 µM and the TGI [24] was > 100 µM. The TGI [25] was > 100 µM, the TGI [26] was > 100 µM and the TGI [27] was > 100 µM. The TGI [28] was > 100 µM, the TGI [29] was > 100 µM and the TGI [30] was > 100 µM. For the same compound, the TGI [32] was > 100 µM, the TGI [33] was > 100 µM and the TGI [34] was > 100 µM. For the same compound, the TGI [36] was > 100 µM, the TGI [37] was > 100 µM and the TGI [38] was > 100 µM. The TGI [39] was > 100 µM, the TGI [41] was > 100 µM and the TGI [42] was > 100 µM. For the same compound, the TGI [44] was > 100 µM, the TGI [45] was > 100 µM and the TGI [46] was > 100 µM. For the same compound, the TGI [47] was > 100 µM, the TGI [48] was > 100 µM and the TGI [49] was > 100 µM. For the same compound, the TGI [50] was > 100 µM, the TGI [51] was > 100 µM and the TGI [53] was > 100 µM. The TGI [54] was > 100 µM, the TGI [56] was > 100 µM and the TGI [57] was > 100 µM.
